Test [1] deals with T1, Serine/threonine-protein kinase BRSK2 (Homo sapiens) (UniProt Q8IWQ3).
T1 sequence (whole entry): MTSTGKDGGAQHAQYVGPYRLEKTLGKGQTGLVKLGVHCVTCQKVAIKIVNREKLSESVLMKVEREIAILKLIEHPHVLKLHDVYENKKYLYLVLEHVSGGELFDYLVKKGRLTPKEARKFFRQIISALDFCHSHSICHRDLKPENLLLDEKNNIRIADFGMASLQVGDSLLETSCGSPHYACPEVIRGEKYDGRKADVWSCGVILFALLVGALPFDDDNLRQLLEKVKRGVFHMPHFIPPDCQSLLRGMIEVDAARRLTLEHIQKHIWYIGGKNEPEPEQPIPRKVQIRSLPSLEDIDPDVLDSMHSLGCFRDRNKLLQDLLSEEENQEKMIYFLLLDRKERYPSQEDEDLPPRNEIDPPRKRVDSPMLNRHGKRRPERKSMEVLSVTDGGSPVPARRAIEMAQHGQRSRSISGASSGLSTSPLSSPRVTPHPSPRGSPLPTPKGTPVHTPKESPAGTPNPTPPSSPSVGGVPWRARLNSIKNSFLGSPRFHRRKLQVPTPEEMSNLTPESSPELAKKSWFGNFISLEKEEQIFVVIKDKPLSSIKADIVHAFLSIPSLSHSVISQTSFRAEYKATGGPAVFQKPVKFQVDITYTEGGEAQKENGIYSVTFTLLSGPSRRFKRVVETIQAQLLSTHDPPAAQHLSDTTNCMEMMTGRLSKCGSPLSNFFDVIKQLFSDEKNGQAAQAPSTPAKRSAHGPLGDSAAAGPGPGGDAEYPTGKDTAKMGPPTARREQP
Description: Selectivity interaction (Ambit KINOMEscan and KiNATiv profiling in Jurkat cells) EUB0000090b BRSK2. The test is classed as cell-based. As to conditions: at 1 µM.

Test [2] addresses Dual specificity tyrosine-phosphorylation-regulated kinase 1A (Homo sapiens, UniProt Q13627). Description: Selectivity interaction (KinomeScan (DiscoverX)) EUB0000607a DYRK1A. As to conditions: at 10 µM.
Test [3] addresses Tyrosine-protein kinase Fyn (Homo sapiens) (UniProt P06241). The experiment in a line: Selectivity interaction (SelectScreen profiling (Invitrogen)) EUB0000607a FYN. The note with it: at 2 µM.
The target of test [4] is T2, Mitogen-activated protein kinase 12 (Homo sapiens) (UniProt P53778).
T2 sequence (whole entry): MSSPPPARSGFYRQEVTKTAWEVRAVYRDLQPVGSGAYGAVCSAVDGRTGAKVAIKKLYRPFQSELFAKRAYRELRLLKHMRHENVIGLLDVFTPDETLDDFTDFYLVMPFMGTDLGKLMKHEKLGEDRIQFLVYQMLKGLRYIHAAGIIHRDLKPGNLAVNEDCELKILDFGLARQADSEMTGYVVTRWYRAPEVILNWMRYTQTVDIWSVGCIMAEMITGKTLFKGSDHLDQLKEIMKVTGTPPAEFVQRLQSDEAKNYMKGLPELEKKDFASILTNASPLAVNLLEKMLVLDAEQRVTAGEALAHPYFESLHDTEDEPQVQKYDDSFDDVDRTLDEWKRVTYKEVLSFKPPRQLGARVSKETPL
As to conditions: at 10 µM.

Test [5] deals with Bone morphogenetic protein receptor type-1A (Homo sapiens, UniProt P36894). The experiment in a line: Selectivity interaction (KinomeScan (DiscoverX)) EUB0001619a BMPR1A. The note with it: at 1 µM.
Test [6] addresses Phosphatidylinositol 4,5-bisphosphate 3-kinase catalytic subunit beta isoform (Homo sapiens) (UniProt P42338). Description: Selectivity interaction (KinomeScan (DiscoverX)) EUB0000092b PIK3CB. As to conditions: at 10 µM.
Test [7] deals with T3, Serine/threonine-protein kinase Nek9 (Homo sapiens) (UniProt Q8TD19).
T3 sequence (whole entry): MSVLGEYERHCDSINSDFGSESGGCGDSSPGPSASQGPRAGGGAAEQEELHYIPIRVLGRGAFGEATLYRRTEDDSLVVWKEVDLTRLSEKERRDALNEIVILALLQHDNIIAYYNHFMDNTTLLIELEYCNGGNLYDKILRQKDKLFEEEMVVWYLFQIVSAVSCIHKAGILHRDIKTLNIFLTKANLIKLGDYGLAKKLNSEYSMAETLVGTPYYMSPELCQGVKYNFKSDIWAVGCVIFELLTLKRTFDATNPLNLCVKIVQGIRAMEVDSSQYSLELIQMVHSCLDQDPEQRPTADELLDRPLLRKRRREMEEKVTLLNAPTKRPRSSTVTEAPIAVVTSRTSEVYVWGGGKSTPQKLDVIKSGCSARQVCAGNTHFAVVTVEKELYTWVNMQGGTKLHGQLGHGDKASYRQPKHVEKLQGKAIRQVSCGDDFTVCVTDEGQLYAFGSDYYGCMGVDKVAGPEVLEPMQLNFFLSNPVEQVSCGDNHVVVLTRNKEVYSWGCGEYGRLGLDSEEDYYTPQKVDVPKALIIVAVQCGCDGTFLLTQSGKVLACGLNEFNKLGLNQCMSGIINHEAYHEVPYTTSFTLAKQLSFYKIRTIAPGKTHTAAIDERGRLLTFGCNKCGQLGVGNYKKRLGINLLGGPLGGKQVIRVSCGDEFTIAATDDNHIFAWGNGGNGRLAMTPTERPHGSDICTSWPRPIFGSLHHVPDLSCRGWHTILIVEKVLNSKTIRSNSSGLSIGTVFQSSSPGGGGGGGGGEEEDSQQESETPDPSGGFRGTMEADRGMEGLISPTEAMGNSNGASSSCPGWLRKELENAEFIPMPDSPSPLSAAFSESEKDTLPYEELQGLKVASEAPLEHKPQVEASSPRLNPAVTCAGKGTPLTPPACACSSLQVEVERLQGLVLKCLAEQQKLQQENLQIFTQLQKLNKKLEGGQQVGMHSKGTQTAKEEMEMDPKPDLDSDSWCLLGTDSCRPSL
Description: Selectivity interaction (KinomeScan (DiscoverX)) EUB0000045b NEK9.

The subject of test [8] is Tyrosine-protein kinase ABL1 (Homo sapiens), P00519 [H396P]. Description: Selectivity interaction (KinomeScan (DiscoverX)) EUB0000045b ABL1. As to conditions: at 10 µM.

Bone morphogenetic protein receptor type-1A, sequence (P36894 whole entry, canonical isoform): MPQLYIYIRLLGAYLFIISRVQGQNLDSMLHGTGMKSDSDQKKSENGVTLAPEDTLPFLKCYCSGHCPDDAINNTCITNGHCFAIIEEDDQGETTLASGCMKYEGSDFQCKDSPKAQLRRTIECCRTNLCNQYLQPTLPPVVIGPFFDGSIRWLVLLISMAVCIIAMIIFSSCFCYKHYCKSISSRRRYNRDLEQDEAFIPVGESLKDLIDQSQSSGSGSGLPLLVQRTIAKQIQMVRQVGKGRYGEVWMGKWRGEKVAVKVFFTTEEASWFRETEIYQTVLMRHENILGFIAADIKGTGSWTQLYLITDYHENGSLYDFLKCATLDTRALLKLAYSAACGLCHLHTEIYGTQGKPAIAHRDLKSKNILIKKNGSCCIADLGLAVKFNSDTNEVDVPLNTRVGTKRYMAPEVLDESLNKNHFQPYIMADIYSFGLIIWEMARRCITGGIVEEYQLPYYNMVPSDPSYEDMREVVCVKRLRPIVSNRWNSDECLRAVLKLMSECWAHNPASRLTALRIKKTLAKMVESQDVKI
Phosphatidylinositol 4,5-bisphosphate 3-kinase catalytic subunit beta isoform (Homo sapiens), sequence (P42338 whole entry, looked up, canonical isoform): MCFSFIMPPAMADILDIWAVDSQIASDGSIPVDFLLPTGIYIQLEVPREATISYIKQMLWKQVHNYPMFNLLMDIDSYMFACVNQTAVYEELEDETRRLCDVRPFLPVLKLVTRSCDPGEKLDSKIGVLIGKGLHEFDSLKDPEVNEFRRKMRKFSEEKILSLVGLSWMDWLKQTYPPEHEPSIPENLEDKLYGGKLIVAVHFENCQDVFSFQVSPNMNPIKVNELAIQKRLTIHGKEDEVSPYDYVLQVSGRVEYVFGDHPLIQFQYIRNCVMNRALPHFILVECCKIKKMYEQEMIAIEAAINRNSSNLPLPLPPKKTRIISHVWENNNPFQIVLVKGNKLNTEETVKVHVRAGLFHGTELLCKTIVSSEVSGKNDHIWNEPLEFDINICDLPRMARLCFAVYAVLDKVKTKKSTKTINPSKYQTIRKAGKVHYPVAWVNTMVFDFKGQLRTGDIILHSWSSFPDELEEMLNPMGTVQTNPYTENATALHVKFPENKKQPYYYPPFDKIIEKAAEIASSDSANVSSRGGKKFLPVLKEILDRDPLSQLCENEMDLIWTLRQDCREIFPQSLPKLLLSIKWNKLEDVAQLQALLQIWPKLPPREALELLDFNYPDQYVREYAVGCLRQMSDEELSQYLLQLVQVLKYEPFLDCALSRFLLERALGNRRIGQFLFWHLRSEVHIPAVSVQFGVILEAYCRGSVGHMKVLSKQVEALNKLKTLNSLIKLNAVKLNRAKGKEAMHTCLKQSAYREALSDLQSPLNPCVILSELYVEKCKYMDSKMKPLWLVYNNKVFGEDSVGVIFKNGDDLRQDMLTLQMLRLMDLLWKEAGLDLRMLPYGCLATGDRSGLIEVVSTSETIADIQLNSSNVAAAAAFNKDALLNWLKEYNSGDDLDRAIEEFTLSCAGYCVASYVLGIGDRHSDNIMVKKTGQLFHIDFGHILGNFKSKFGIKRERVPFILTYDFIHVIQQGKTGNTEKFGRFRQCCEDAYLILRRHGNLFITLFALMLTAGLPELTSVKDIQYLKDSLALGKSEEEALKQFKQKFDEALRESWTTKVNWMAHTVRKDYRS
Tyrosine-protein kinase Fyn (Homo sapiens), sequence (P06241 2-537 limits assumed): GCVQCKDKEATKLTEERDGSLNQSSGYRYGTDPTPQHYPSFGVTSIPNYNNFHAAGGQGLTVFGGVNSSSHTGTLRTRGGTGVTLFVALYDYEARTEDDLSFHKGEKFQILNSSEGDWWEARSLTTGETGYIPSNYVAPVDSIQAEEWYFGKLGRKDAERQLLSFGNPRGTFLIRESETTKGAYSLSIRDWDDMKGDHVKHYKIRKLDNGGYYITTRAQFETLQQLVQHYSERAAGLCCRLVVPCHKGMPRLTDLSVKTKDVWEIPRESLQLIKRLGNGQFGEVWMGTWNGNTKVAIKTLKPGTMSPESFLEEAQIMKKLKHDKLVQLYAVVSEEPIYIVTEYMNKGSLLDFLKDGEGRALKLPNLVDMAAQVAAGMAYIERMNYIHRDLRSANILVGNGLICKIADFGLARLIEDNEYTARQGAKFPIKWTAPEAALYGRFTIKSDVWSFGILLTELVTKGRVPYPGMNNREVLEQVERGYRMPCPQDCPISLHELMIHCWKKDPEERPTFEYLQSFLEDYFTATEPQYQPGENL

On to `CN(C)C/C=C/C(=O)Nc1ccc(C(=O)N2CCCC(Nc3ncc(Cl)c(-c4c[nH]c5ccccc45)n3)C2)cc1` (centres undefined), for which the % of control in test [1] was 100%.
As for `CNC(=O)Nc1ccc(-c2nc(N3CC4CCC(C3)O4)c3cnn(C4CCC5(CC4)OCCO5)c3n2)cc1`, the % of control in test [2] was 100%. The % of inhibition in test [3] came to 2%.
Consider `Cc1cc([C@@H](C)Nc2ccccc2C(=O)O)c2nc(N3CCOCC3)cc(=O)n2c1` [AZD-6482], for which the % of control in test [4] is 94%.
`N#Cc1cccc(-c2c[nH]c3ncnc(N4CCOCC4)c23)c1`: in test [5], the % of control was found to be 98%.
Turning to `CCC(=O)N1CCN(c2ccc(-n3c(=O)ccc4cnc5ccc(-c6cnc7ccccc7c6)cc5c43)cc2C(F)(F)F)CC1`, in test [6], the % of control was 65%.
Take `C=CC(=O)Nc1cc(-n2c(=O)ccc3cnc4ccc(-c5ccc(NS(C)(=O)=O)cc5)cc4c32)ccc1C`: the % of control was found to be 100% in test [7] (at 1 µM), 65% in test [7] (at 10 µM) and 44% in test [8].
